Source: patent US20230172203A1, “PLANT METABOLISM PROMOTING COMPOSITIONS AND METHODS OF USE” (Panoptic Ag Solutions LLC, priority 2021, published 2023)

Assays:
[1] = test system: CalWonder variety pepper plant seedlings; test: 2021 Greenhouse Bell Pepper Trial; format: in vivo
From the text: (§1) The base formulation used in greenhouse trials was an aqueous solution of L-theanine (20% by weight). The base formulation was further diluted with water as detailed for each trial. CalWonder variety pepper plant seedlings (n=4/treatment) were planted in commercial potting soil and then were transplanted to 3-gallon pots. L-theanine treatment was applied at the equivalent of 1 pint in 100 gallons of water (125 ppm) and sprayed till runoff. Two treatment applications were made to the plants approximately 14 days apart.

Zinnia plants = test: 2021 Zinnia Greenhouse Trial; format: in vivo
From the text: as §1, with “trial. Zinna seeds (n=6/treatment)” for “trial. CalWonder variety pepper plant seedlings (n=4/treatment)”, “then” for “then were”, “transplanted into” for “transplanted to”, “Two treatments” for “Two treatment applications”

Dwarf sunflower = test: 2021 Greenhouse Sunflower Trial; format: in vivo
From the text: The base formulation used in greenhouse trials was an aqueous solution of L-theanine (20% by weight). The base formulation was further diluted with water as detailed for each trial. Dwarf sunflower seeds (n=9/treatment) were planted in commercial potting soil in 1-gallon pots. Approximately 14 days after emergence, an L-theanine solution was applied to the foliage at the equivalent of 8 fl. oz./acre in 50 gallons of water (125 ppm) and sprayed till run off. One application was made.

Soybean seed = test: 2020 Greenhouse Soybean Seed Treatment Trial; format: in vivo
Description: The base formulation used in greenhouse trials was an aqueous solution of L-theanine (20% by weight). The base formulation was further diluted with water as detailed for each trial. Soybean seed (n=32/treatment) was treated with an aqueous solution of L-theanine at a rate of 1.0 fl. oz. per hundredweight of soybean seed. The seeds were planted in commercial potting soil in 1-gallon pots. The plants were grown for 21 days before they were harvested.

Corn plants = test: 2021 Greenhouse Corn Trial (drench, two rates); format: in vivo; conditions: for Plant Biomass / Root Length: drench 50 mL per pot, harvested 21 days later
Description: The base formulation used in greenhouse trials was an aqueous solution of L-theanine (20% by weight). The base formulation was further diluted with water as detailed for each trial. Corn seed (n=14/treatment) was planted in commercial potting soil in 3-gallon pots. Approximately 14 days after emergence, an aqueous solution of L-theanine was applied at a rate of 0.2 mL (Treatment 2) and 0.4 mL (Treatment 3) per 1000 mL water. The resulting solutions were drenched at a rate of 50 mL per pot. The plants were grown for an additional 21 days then harvested.

corn = test: 2021 York, NE Corn Replicated Field Trial; format: in vivo; conditions: in-furrow application 8 fl. oz. per acre; V5 growth stage; vs untreated plant
From the text: FIG. 1 is a photo from a 2021 York, NE Corn Trial. An aqueous solution of L-theanine was applied to the corn as an in-furrow application at a rate of 8 fl. oz. per acre. The pictures from the trial were taken at the V5 (5th Leaf) growth stage.

Onions = test: 2021 Pennsylvania Onion Replicated Field Trial; format: in vivo
Description: Onions were maintained under grower standard practices. Four replications were performed per treatment. In this trial, applications of L-theanine were performed every 14 days for a total of 4 applications.

Mature apple trees = test: 2021 New York Replicated Apple Field Trial; format: in vivo
Description: Mature apple trees (n=6) were treated with a 20% aqueous L-theanine solution at 1 pint per acre with application timings at Pink Bud, Bloom, Petal Fall, and every 2 weeks from Petal Fall until harvest.

Almond trees = test: 2021 Replicated California Almond Trial; format: in vivo
Description: Almond trees (n=6) were treated with a 20% aqueous solution of L-theanine at 1 pint per acre at pink bud and full bloom. Additional applications at 0.5 pint per acre soil were applied at petal fall, petal fall +3 weeks, and petal fall +6 weeks for a total of applications. The trial was maintained at grower standard fertilizer and pest management throughout the course of the trial.

tea plants = conditions: exogenous application; background statement; cited from earlier work
[2] = foliar spray 125 ppm till runoff, two applications ~14 days apart
[3] = vs untreated check, 125 ppm foliar, two applications
[4] = foliar spray 125 ppm till runoff, two treatments ~14 days apart
[5] = over the untreated check, 125 ppm foliar, two treatments
[6] = foliar, 8 fl. oz./acre in 50 gallons of water (125 ppm), one application
[7] = over the untreated check, 125 ppm foliar, one application
[8] = over the untreated check, seed treatment
[9] = seed treatment 1.0 fl. oz. per hundredweight of seed, harvested after 21 days
[10] = Treatment 2 (0.2 mL per 1000 mL), above the untreated check
[11] = Treatment 2: 8 fl. oz./acre (0.2 mL per 1000 mL water)
[12] = Treatment 3 (0.4 mL per 1000 mL), above the untreated check
[13] = Treatment 3: 16 fl. oz./acre (0.4 mL per 1000 mL water)
[14] = vs untreated check, 4 applications
[15] = 20% aqueous solution at 1 pint per acre, Pink Bud, Bloom, Petal Fall, then every 2 weeks until harvest

CCNC(=O)CC[C@H](N)C(=O)O [L-theanine]
Basal Diameter [1, 2]: 5.55 a mm | Fruit (count) [1, 2]: 5.5 a count | Plant Height [1, 2]: 26 a in | improvement in basal diameter [1, 3]: 1.82 mm | improvement in basal diameter, percent [1, 3]: 48.8% | improvement in fruit count [1, 3]: 3.0 | improvement in fruit count, percent [1, 3]: 120% | Basal Diameter (Zinnia plants; [4]): 6.45 a mm | Flower (count) (Zinnia plants; [4]): 10.17 count | Plant Height (Zinnia plants; [4]): 35.83 a cm | increase in basal diameter (Zinnia plants; [5]): 1.2 mm | increase in basal diameter, percent (Zinnia plants; [5]): 22.9% | increase in flower counts (Zinnia plants; [5]): 6.0 | increase in flower counts, percent (Zinnia plants; [5]): 143.9% | increase in plant height (Zinnia plants; [5]): 9.66 cm | increase in plant height, percent (Zinnia plants; [5]): 36.9% | Root Length (Dwarf sunflower; [6]): 1765.1 a cm | Root Surface Area (Dwarf sunflower; [6]): 491.1 a cm^2 | Root Volume (Dwarf sunflower; [6]): 10.9 a cm^3 | Plant Biomass (Dwarf sunflower; foliar, 8 fl. oz./acre in 50 gallons of water (125 ppm), one application ~14 days after emergence): 38.63 a g | increase in biomass (Dwarf sunflower; [7]): 4.4 grams | increase in biomass, percent (Dwarf sunflower; [7]): 12.8% | increase in root length (Dwarf sunflower; [7]): 70.5 cm | increase in root length, percent (Dwarf sunflower; [7]): 4.2% | increase in root surface area (Dwarf sunflower; [7]): 61.5 cm^2 | increase in root surface area, percent (Dwarf sunflower; [7]): 14.3% | increase in root volume (Dwarf sunflower; [7]): 2.2 cm^3 | increase in root volume, percent (Dwarf sunflower; [7]): 25.3% | increase in biomass (Soybean seed; [8]): 0.43 g | increase in biomass, percent (Soybean seed; [8]): 8.0% | increase in root length (Soybean seed; [8]): 94.4 cm | increase in root length, percent (Soybean seed; [8]): 8.1% | increase in root tips (Soybean seed; [8]): 763.4 | increase in root tips, percent (Soybean seed; [8]): 21.0% | Plant Biomass (Soybean seed; [9]): 5.80 a g | Root Length (Soybean seed; [9]): 1263.7 a cm | Root Tips (count) (Soybean seed; [9]): 4392.0 a count | change in biomass (Corn plants; [10]): 9.0 grams | change in biomass, percent (Corn plants; [10]): 13.9% | change in root length (Corn plants; [10]): −106.8 | change in root length, percent (Corn plants; [10]): −6.0% | Plant Biomass (Corn plants; [11]): 74.0 a g | Root Length (Corn plants; [11]): 1683.8 a cm | change in biomass (Corn plants; [12]): 9.1 grams | change in biomass, percent (Corn plants; [12]): 14.1% | change in root length (Corn plants; [12]): 65.3 | change in root length, relative (in brackets) (Corn plants; [12]): 3.6 | Plant Biomass (Corn plants; [13]): 74.1 a g | Root Length (Corn plants; [13]): 1855.9 a cm | root biomass development and stalk girth (FIG. 1, in words) (corn): increases in root biomass development and stalk girth | Fresh Onion Mass (Onions; applications every 14 days, total of 4 applications): 227 a g | size and uniformity of onions (FIG. 2, in words) (Onions; treated over untreated onions): increase in size and uniformity | increase in biomass of the onions (Onions; [14]): 75.0 g | increase in biomass of the onions, percent (Onions; [14]): 49.3% | Defects (Mature apple trees; [15]): 114.5 a bu/acre | Salable Yield (Mature apple trees; [15]): 837.8 a bu/acre | Total Yield (Mature apple trees; [15]): 952.3 a bu/acre | increase in salable yield, percent (Mature apple trees; vs untreated check): 12.5% | number of defective fruits (in words) (Mature apple trees; vs untreated check): reduced the number of defective fruits | increase in salable yield (Mature apple trees; vs untreated check, 1 bushel=48 lbs): 93.1 bushels/acre | Yield (Almond trees; 20% aqueous solution, 1 pint per acre at pink bud and full bloom, 0.5 pint per acre soil at petal fall, +3 weeks, +6 weeks): 152.2 a lbs/tree | increase in almond yield (average) (Almond trees; vs untreated check): 15.3 lbs per tree | increase in almond yield, percent (Almond trees; vs untreated check): 11.2% | quality and yield of tea plants (in words) (tea plants): can improve the quality and yield of tea plants by increasing the number of usable leaves
